Assays:
[1] = Cytotoxicity (XTT cell viability), BV-2; format: cell-based; details: mouse, BV-2 microglial cells, LPS/IFN-γ-stimulated, LPS-IFN-γ-induced cells, mean ± SEM (n = 6)
Method: (§1) Compounds 1–8 were screened for their inhibitory effects on nitric oxide production in LPS-IFN-γ activated RAW 264.7 macrophages and BV-2 microglial cells at a final concentration of 50 µM. […] A deprenylated furanoxanthone structure with ortho hydroxy group in ring B as in 7 might be important to enhance the inhibitory effect when compared to 6 and 8.
(§2) The iNOS inhibitory activity of the isolated compounds and respective cytotoxicity was determined using a previously described protocol. Briefly, BV-2 mouse microglial (25,000 cells/well) and RAW 264.7 mouse macrophage (100,000 cells/well) cell lines were seeded into 96-well plates in high glucose Dulbecco’s Modified Eagle’s Medium (DMEM, Gibco) containing 4 mM L-glutamine, 10% FBS, 2% HEPES, 1% penicillin/streptomycin, and 0.5% amphotericin B. After incubation for 24 h at 37 °C in a 5% CO2 humidified atmosphere, the cells were stimulated with 0.05% LPS (Sigma) and 0.025% interferon-γ (Roche Diagnostics, Mannheim, Germany) and treated with different concentrations (5–100 μM) of the tested compounds. The level of NO production in cell culture supernatants was determined using Griess reagent (Sigma) by photocolorimetric analysis after 16 h of incubation, using a Hidex Sense Microplate Reader (Hidex, Turku, Finland). Fifty microliters of XTT reagent (Sigma, Kit II) was then added into the same plates for cell viability measurement after 60 min incubation. L-NMMA (Alexis, Grünberg, Germany) 100 µM was used as the positive control, while 1% DMSO and digitonin (Roth, Karlsruhe, Germany) 400 µM were used as the vehicle and negative control, respectively. The assays were conducted in triplicates and repeated in two independent experiments. IC50 values were determined by graphical analysis using GraphPad Prism 7 (GraphPad Software, La Jolla, CA, USA).

[2] = Cytotoxicity (XTT cell viability), RAW 264.7; format: cell-based; details: mouse, RAW 264.7 macrophage cells, LPS/IFN-γ-stimulated, LPS-IFN-γ-induced cells, mean ± SEM (n = 6)
Method: as §1, §2

[3] = test system: NO production in LPS-IFN-γ-induced BV-2 microglial cells; experiment: NO production inhibition assay (Griess), BV-2; format: cell-based, mouse; details: for IC50: Mus musculus, BV-2, LPS-IFN-γ-induced, 16 h, mean ± SEM (n = 6), read-out: IC50, iNOS (inhibition of NO production), BV-2; for suppression of NO production, BV-2: final concentration of 50 µM, preliminary screen; for IC50 of NO inhibition lower than the cytotoxic activity, BV-2: ratio cytotoxicity IC50 / NO inhibition IC50 in BV-2 cells
Method: as §1, §2

[4] = target: T1, COX-1 (purified PGHS-1 from ram seminal vesicles) (Ovis aries, UniProt P05979); experiment: COX-1 enzyme inhibition assay (PGE2 ELISA); format: biochemical; details: mean ± SD (n = 4)
T1 construct: Purified PGHS-1 from ram seminal vesicles for COX-1; purchased Cayman Chemical Co., Ann Arbor, MI, USA; host or cells: ram seminal vesicles (tissue-purified)
T1 sequence (P05979 25-600): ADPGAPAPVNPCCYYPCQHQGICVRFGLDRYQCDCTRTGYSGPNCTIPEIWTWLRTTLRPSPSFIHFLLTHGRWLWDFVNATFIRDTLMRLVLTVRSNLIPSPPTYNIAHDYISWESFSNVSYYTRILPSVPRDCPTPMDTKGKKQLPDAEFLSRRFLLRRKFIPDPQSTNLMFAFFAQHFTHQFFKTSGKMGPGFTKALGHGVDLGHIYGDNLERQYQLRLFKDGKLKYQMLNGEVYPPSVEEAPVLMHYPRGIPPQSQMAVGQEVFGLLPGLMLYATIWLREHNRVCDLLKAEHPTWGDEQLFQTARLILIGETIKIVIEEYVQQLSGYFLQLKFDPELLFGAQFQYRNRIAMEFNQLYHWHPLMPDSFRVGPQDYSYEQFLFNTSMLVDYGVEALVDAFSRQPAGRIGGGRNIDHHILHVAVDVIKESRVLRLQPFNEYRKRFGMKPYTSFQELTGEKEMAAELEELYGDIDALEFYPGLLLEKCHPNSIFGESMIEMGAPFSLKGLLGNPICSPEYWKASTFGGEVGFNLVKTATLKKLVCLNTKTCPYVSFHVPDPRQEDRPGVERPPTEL
Method: The anti-inflammatory effects of the isolated compounds were also screened on COX-1 and COX-2 enzymes inhibition at a final concentration of 20 µM.
Purified PGHS-1 from ram seminal vesicles for COX-1 and human recombinant PGHS-2 for COX-2 (Cayman Chemical Co., Ann Arbor, MI, USA) were used for the COX inhibition assays. Experiments were performed in a 96-well plate format, as previously described. Briefly, the incubation mixture contained 180 µL of 0.1 M TRIS/HCl-buffer pH 8.0 (Roth, Karlsruhe, Germany), 50 µM Na2EDTA (only for COX-2, Titriplex III, Merck, Darmstadt, Germany), 18 mM L-epinepherine bitartrate (Fluka, Buchs, Switzerland), 5 µM porcine hematin (MP Biomedicals LLC, Solon, OH, USA), and COX-1 or COX-2 enzymes (0.2 U/well). Ten microliters of tested compounds (dissolved in DMSO with a final concentration of 20 µM) was added and the mixture was pre-incubated for 5 min at room temperature. Thereafter, 10 µL of 5 µM arachidonic acid (Ann Arbor, Michigan USA) was added to the mixture and incubated for 20 min at 37 °C. The reaction was subsequently stopped by adding 10 µL of 10% (v/v) formic acid. The concentration of PGE2 generated in the reaction was quantitatively measured by a competitive PGE2 ELISA kit (Enzo Life Sciences Inc., Farmingdale, NY, USA) according to the manufacturer’s protocol and previous procedure. The absorbance at 405 nm was measured using a Hidex Sense Microplate Reader (Hidex, Turku, Finland). […] The assays were performed in duplicates and repeated in two independent experiments.

[5] = test system: NO production in LPS-IFN-γ-induced RAW 264.7 macrophages; experiment: NO production inhibition assay (Griess), RAW 264.7; format: cell-based, mouse; details: for IC50: Mus musculus, RAW264.7, LPS-IFN-γ-induced, 16 h, mean ± SEM (n = 6), read-out: IC50, iNOS (inhibition of NO production), RAW 264.7; for suppression of NO production, RAW 264.7: final concentration of 50 µM, preliminary screen
Method: as §1, §2

| SMILES | IC50 at 16 h [1] [µM] | IC50 at 16 h [2] [µM] | IC50 [3] [µM] | suppression of NO production, BV-2 [3] | IC50 of NO inhibition lower than the cytotoxic activity, BV-2 [3] [fold] | inhibition at 20 µM [4] [%] | IC50 [5] [µM] | suppression of NO production, RAW 264.7 [5] |
| --- | --- | --- | --- | --- | --- | --- | --- | --- |
| C[C@H]1Oc2c(c(O)c3c(=O)c4ccc(O)c(O)c4oc3c2CCC(C)(C)O)C1(C)C [Compound 4, gerontoxanthone C hydrate] | 27.7 ± 6.4 | > 200 | 20 ± 4 | over 70% | 1.4 | 32.4 ± 7.9 | 84.3 ± 3.5 | over 70% |
| C[C@@H]1Oc2cc(O)c3c(=O)c4ccc(O)c(O)c4oc3c2C1(C)C [Compound 7, 2-deprenylrheediaxanthone B] | 31.7 ± 4.7 | 85.6 ± 6.9 | 28.7 ± 2.3 | over 70% | 1.1 | 15.4 ± 7.5 | 45.6 ± 6.5 | over 70% |
